Measurements published in PubChem BioAssay (NCI).
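The compound was tested at five concentrations on cells cultured in 96-well plates, with a 48-hour exposure period. GI50 is the concentration that inhibits growth by half. TGI marks complete inhibition of growth.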

What was measured:
Assay in all cases: inhibition of tumour cell growth, NCI panel, 48 h
786-0 renal = tested on: 786-0 renal
A498 renal = tested on: A498 renal
A549 NSCLC = tested on: A549 NSCLC
ACHN renal = tested on: ACHN renal
BT-549 breast = tested on: BT-549 breast
CCRF-CEM leukemia = tested on: CCRF-CEM leukemia
COLO 205 colon = tested on: COLO 205 colon
DU-145 prostate = tested on: DU-145 prostate
EKVX NSCLC = tested on: EKVX NSCLC
HCC-2998 colon = tested on: HCC-2998 colon
HCT-116 colon = tested on: HCT-116 colon
HCT-15 colon = tested on: HCT-15 colon
HL-60(TB) leukemia = tested on: HL-60(TB) leukemia
HOP-62 NSCLC = tested on: HOP-62 NSCLC
HOP-92 NSCLC = tested on: HOP-92 NSCLC
HS 578T breast = tested on: HS 578T breast
HT29 colon = tested on: HT29 colon
IGROV1 ovarian = tested on: IGROV1 ovarian
KM12 colon = tested on: KM12 colon
LOX IMVI melanoma = tested on: LOX IMVI melanoma
M14 melanoma = tested on: M14 melanoma
MALME-3M melanoma = tested on: MALME-3M melanoma
MCF7 breast = tested on: MCF7 breast
MDA-MB-231 breast = tested on: MDA-MB-231 breast
MDA-MB-435 = tested on: MDA-MB-435
MOLT-4 leukemia = tested on: MOLT-4 leukemia
NCI-H226 lung = tested on: NCI-H226 lung
NCI-H23 lung = tested on: NCI-H23 lung
NCI-H460 lung = tested on: NCI-H460 lung
NCI-H522 lung = tested on: NCI-H522 lung
NCI/ADR-RES ovarian = tested on: NCI/ADR-RES ovarian
OVCAR-3 ovarian = tested on: OVCAR-3 ovarian
OVCAR-4 ovarian = tested on: OVCAR-4 ovarian
OVCAR-5 ovarian = tested on: OVCAR-5 ovarian
OVCAR-8 ovarian = tested on: OVCAR-8 ovarian
PC-3 prostate = tested on: PC-3 prostate
RPMI-8226 leukemia = tested on: RPMI-8226 leukemia
RXF 393 renal = tested on: RXF 393 renal
SF-268 CNS = tested on: SF-268 CNS
SF-295 CNS = tested on: SF-295 CNS
SF-539 CNS = tested on: SF-539 CNS
SK-MEL-2 melanoma = tested on: SK-MEL-2 melanoma
SK-MEL-28 melanoma = tested on: SK-MEL-28 melanoma
SK-MEL-5 melanoma = tested on: SK-MEL-5 melanoma
SK-OV-3 ovarian = tested on: SK-OV-3 ovarian
SN12C renal = tested on: SN12C renal
SNB-19 CNS = tested on: SNB-19 CNS
SNB-75 CNS = tested on: SNB-75 CNS
SR leukemia = tested on: SR leukemia
SW-620 colon = tested on: SW-620 colon
T-47D breast = tested on: T-47D breast
TK-10 renal = tested on: TK-10 renal
U251 CNS = tested on: U251 CNS
UACC-257 melanoma = tested on: UACC-257 melanoma
UACC-62 melanoma = tested on: UACC-62 melanoma
UO-31 renal = tested on: UO-31 renal

SMILES: CC(=O)/C=C/c1ccc(OCc2ccc(Cl)cc2)cc1
- GI50 (786-0 renal): 718 µM
- TGI (786-0 renal): > 1000 µM
- GI50 (A498 renal): 254 µM
- TGI (A498 renal): > 1000 µM
- GI50 (A549 NSCLC): > 1000 µM
- TGI (A549 NSCLC): > 1000 µM
- GI50 (ACHN renal): > 1000 µM
- TGI (ACHN renal): > 1000 µM
- GI50 (BT-549 breast): 136 µM
- TGI (BT-549 breast): > 1000 µM
- GI50 (CCRF-CEM leukemia): 577 µM
- TGI (CCRF-CEM leukemia): > 1000 µM
- GI50 (COLO 205 colon): 287 µM
- TGI (COLO 205 colon): > 1000 µM
- GI50 (DU-145 prostate): 636 µM
- TGI (DU-145 prostate): > 1000 µM
- GI50 (EKVX NSCLC): 298 µM
- TGI (EKVX NSCLC): > 1000 µM
- GI50 (HCC-2998 colon): 473 µM
- TGI (HCC-2998 colon): > 1000 µM
- GI50 (HCT-116 colon): > 1000 µM
- TGI (HCT-116 colon): > 1000 µM
- GI50 (HCT-15 colon): 498 µM
- TGI (HCT-15 colon): > 1000 µM
- GI50 (HL-60(TB) leukemia): 405 µM
- TGI (HL-60(TB) leukemia): > 1000 µM
- GI50 (HOP-62 NSCLC): > 1000 µM
- TGI (HOP-62 NSCLC): > 1000 µM
- GI50 (HOP-92 NSCLC): 372 µM
- TGI (HOP-92 NSCLC): > 1000 µM
- GI50 (HS 578T breast): > 1000 µM
- TGI (HS 578T breast): > 1000 µM
- GI50 (HT29 colon): > 1000 µM
- TGI (HT29 colon): > 1000 µM
- GI50 (IGROV1 ovarian): > 1000 µM
- TGI (IGROV1 ovarian): > 1000 µM
- GI50 (KM12 colon): 513 µM
- TGI (KM12 colon): > 1000 µM
- GI50 (LOX IMVI melanoma): 343 µM
- TGI (LOX IMVI melanoma): > 1000 µM
- GI50 (M14 melanoma): 559 µM
- TGI (M14 melanoma): > 1000 µM
- GI50 (MALME-3M melanoma): 330 µM
- TGI (MALME-3M melanoma): > 1000 µM
- GI50 (MCF7 breast): 644 µM
- TGI (MCF7 breast): > 1000 µM
- GI50 (MDA-MB-231 breast): 629 µM
- TGI (MDA-MB-231 breast): > 1000 µM
- GI50 (MDA-MB-435): 228 µM
- TGI (MDA-MB-435): > 1000 µM
- GI50 (MOLT-4 leukemia): 240 µM
- TGI (MOLT-4 leukemia): > 1000 µM
- GI50 (NCI-H226 lung): > 1000 µM
- TGI (NCI-H226 lung): > 1000 µM
- GI50 (NCI-H23 lung): 720 µM
- TGI (NCI-H23 lung): > 1000 µM
- GI50 (NCI-H460 lung): 529 µM
- TGI (NCI-H460 lung): > 1000 µM
- GI50 (NCI-H522 lung): 295 µM
- TGI (NCI-H522 lung): > 1000 µM
- GI50 (NCI/ADR-RES ovarian): 395 µM
- TGI (NCI/ADR-RES ovarian): > 1000 µM
- GI50 (OVCAR-3 ovarian): > 1000 µM
- TGI (OVCAR-3 ovarian): > 1000 µM
- GI50 (OVCAR-4 ovarian): 648 µM
- TGI (OVCAR-4 ovarian): > 1000 µM
- GI50 (OVCAR-5 ovarian): > 1000 µM
- TGI (OVCAR-5 ovarian): > 1000 µM
- GI50 (OVCAR-8 ovarian): 613 µM
- TGI (OVCAR-8 ovarian): > 1000 µM
- GI50 (PC-3 prostate): 725 µM
- TGI (PC-3 prostate): > 1000 µM
- GI50 (RPMI-8226 leukemia): 237 µM
- TGI (RPMI-8226 leukemia): > 1000 µM
- GI50 (RXF 393 renal): 568 µM
- TGI (RXF 393 renal): > 1000 µM
- GI50 (SF-268 CNS): 670 µM
- TGI (SF-268 CNS): > 1000 µM
- GI50 (SF-295 CNS): 679 µM
- TGI (SF-295 CNS): > 1000 µM
- GI50 (SF-539 CNS): > 1000 µM
- TGI (SF-539 CNS): > 1000 µM
- GI50 (SK-MEL-2 melanoma): 473 µM
- TGI (SK-MEL-2 melanoma): > 1000 µM
- GI50 (SK-MEL-28 melanoma): 400 µM
- TGI (SK-MEL-28 melanoma): > 1000 µM
- GI50 (SK-MEL-5 melanoma): 140 µM
- TGI (SK-MEL-5 melanoma): 395 µM
- GI50 (SK-OV-3 ovarian): > 1000 µM
- TGI (SK-OV-3 ovarian): > 1000 µM
- GI50 (SN12C renal): 893 µM
- TGI (SN12C renal): > 1000 µM
- GI50 (SNB-19 CNS): > 1000 µM
- TGI (SNB-19 CNS): > 1000 µM
- GI50 (SNB-75 CNS): 457 µM
- TGI (SNB-75 CNS): > 1000 µM
- GI50 (SR leukemia): 564 µM
- TGI (SR leukemia): > 1000 µM
- GI50 (SW-620 colon): > 1000 µM
- TGI (SW-620 colon): > 1000 µM
- GI50 (T-47D breast): 182 µM
- TGI (T-47D breast): > 1000 µM
- GI50 (TK-10 renal): 827 µM
- TGI (TK-10 renal): > 1000 µM
- GI50 (U251 CNS): > 1000 µM
- TGI (U251 CNS): > 1000 µM
- GI50 (UACC-257 melanoma): 274 µM
- TGI (UACC-257 melanoma): > 1000 µM
- GI50 (UACC-62 melanoma): 218 µM
- TGI (UACC-62 melanoma): > 1000 µM
- GI50 (UO-31 renal): 556 µM
- TGI (UO-31 renal): > 1000 µM
